Results: patent US9765075B2, “Substituted bridged urea analogs as sirtuin modulators” (GLAXOSMITHKLINE LLC, priority 2013, dated 2017)

Biological target: T1, SIRT1 (Homo sapiens, UniProt Q96EB6)
T1 sequence (Q96EB6 1-747): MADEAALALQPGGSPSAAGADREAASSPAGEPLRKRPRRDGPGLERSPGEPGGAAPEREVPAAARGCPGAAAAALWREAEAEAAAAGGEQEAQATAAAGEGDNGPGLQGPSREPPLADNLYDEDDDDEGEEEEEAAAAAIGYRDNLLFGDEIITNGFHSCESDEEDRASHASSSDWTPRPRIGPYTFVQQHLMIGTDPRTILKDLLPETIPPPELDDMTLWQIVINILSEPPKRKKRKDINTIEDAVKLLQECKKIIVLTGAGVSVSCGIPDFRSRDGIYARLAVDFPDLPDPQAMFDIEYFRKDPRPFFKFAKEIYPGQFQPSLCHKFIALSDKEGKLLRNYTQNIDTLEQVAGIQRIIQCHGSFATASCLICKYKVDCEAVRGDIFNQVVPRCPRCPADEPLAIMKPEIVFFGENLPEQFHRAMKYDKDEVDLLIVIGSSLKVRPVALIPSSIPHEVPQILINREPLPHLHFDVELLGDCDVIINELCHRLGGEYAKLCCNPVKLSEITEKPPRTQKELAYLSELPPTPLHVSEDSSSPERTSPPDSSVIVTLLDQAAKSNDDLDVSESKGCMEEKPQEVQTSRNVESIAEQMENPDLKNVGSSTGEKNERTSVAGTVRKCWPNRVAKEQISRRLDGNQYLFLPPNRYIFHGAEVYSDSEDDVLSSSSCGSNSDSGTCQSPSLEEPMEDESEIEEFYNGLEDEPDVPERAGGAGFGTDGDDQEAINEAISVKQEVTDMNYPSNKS
Assay: Trp mass spectrometry assay (SIRT1 activation)
Assay type: biochemical
Settings: Trp peptide substrate; for Tryp AVG EC1.5 (μM): concentration of test compound that results in 150% activation of SIRT1; for Emax: percent maximum fold activation of SIRT1, read-out: Tryp % Fold Act
In short: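 N-His-tagged SIRT1 (10 nM), expressed in E. coli, was incubated with 0.5 μM Ac-RHKK(Ac)W-NH2 peptide and 120 μM NAD+ for 25 min at 25 °C in HEPES pH 7.5 with […]. The reaction was stopped with formic acid and O-acetyl-ADP-ribose or deacetylated peptide was quantified by mass spectrometry. Results are given as EC1.5 and percent maximal activation relative to DMSO control.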

| Compound | Tryp AVG EC1.5 (μM) | Emax |
| --- | --- | --- |
| O=C(Nc1cc(Br)cc(-c2cnco2)c1)N1c2nc(-c3cccc(C(F)(F)F)c3)ccc2N2CC[C@H]1C2 [Example 562] | A (EC1.5<1 μM) | ≥ 150% |
| O=C(O)c1cc(NC(=S)NCc2ccc(NC(=O)N3c4nc(-c5cccc(C(F)(F)F)c5)ccc4N4CCC[C@H]3C4)cc2)ccc1-c1c2ccc(=O)cc-2oc2cc(O)ccc12 [Example 563] | A (EC1.5<1 μM) | ≥ 150% |
| O=C(Nc1ccc(-n2cncn2)cc1)N1c2nc(-c3cccc(C(F)(F)F)c3)ccc2N2CC[C@H]1C2 [Example 580] | A (EC1.5<1 μM) | ≥ 150% |
| Cc1ccc(-c2ccc(NC(=O)N3c4nc(-c5cccc(C(F)(F)F)c5)ccc4N4CC[C@H]3C4)cc2)o1 [Example 582] | B (EC1.5 1-25 μM) | ≥ 150% |
| Cc1nc(-c2cccc(NC(=O)N3c4nc(-c5cccc(C(F)(F)F)c5)ccc4N4CC[C@H]3C4)c2)cs1 [Example 583] | A (EC1.5<1 μM) | ≥ 150% |
| O=C(Nc1cccc(-c2cnco2)n1)N1c2nc(-c3cccc(C(F)(F)F)c3)ccc2N2CCC[C@H]1C2 [Example 590] | A (EC1.5<1 μM) | ≥ 150% |
| CC(C)(C)OC(=O)N1CCC(c2cccc(NC(=O)N3c4nc(-c5cccc(C(F)(F)F)c5)ccc4N4CC[C@H]3C4)c2)C1 (stereo partly shown) [Example 592] | A (EC1.5<1 μM) | ≥ 150% |
| NC(=O)CN1CCC(c2cccc(NC(=O)N3c4nc(-c5cccc(C(F)(F)F)c5)ccc4N4CC[C@H]3C4)c2)C1 (stereo partly shown) [Example 594] | A (EC1.5<1 μM) | ≥ 150% |
| O=C(NCc1ccccc1)N1c2nc(-c3cccc(C(F)(F)F)c3)ccc2N2CC[C@H]1C2 [Example 597] | B (EC1.5 1-25 μM) | ≥ 150% |
| O=C(NCCc1ccccc1)N1c2nc(-c3cccc(C(F)(F)F)c3)ccc2N2CC[C@H]1C2 [Example 598] | B (EC1.5 1-25 μM) | ≥ 150% |
| O=C(NCCCc1ccccc1)N1c2nc(-c3cccc(C(F)(F)F)c3)ccc2N2CC[C@H]1C2 [Example 599] | B (EC1.5 1-25 μM) | ≥ 150% |
| O=C(NCCCCc1ccccc1)N1c2nc(-c3cccc(C(F)(F)F)c3)ccc2N2CC[C@H]1C2 [Example 600] | B (EC1.5 1-25 μM) | ≥ 150% |
| O=C(Nc1ccccn1)N1c2nc(-c3cccc(C(F)(F)F)c3)ccc2N2C[C@@H](O)[C@H]1C2 [Example 601] | A (EC1.5<1 μM) | ≥ 150% |
| CC(=O)O[C@@H]1CN2C[C@H]1N(C(=O)Nc1ccccn1)c1nc(-c3cccc(C(F)(F)F)c3)ccc12 [Example 602] | B (EC1.5 1-25 μM) | ≥ 150% |
| O=C(O[C@@H]1CN2C[C@H]1N(C(=O)Nc1ccccn1)c1nc(-c3cccc(C(F)(F)F)c3)ccc12)c1ccccc1 [Example 603] | C (EC1.5>25 μM) | < 150% |
| CC(C)(C)OC(=O)NCCn1cc(-c2cccc(NC(=O)N3c4nc(-c5cccc(C(F)(F)F)c5)ccc4N4CCC[C@H]3C4)c2)nn1 [Example 604] | A (EC1.5<1 μM) | ≥ 150% |
| CC(C)(C)OC(=O)NCc1cn(-c2cccc(NC(=O)N3c4nc(-c5cccc(C(F)(F)F)c5)ccc4N4CC[C@H]3C4)c2)nn1 [Example 605] | A (EC1.5<1 μM) | ≥ 150% |
| NCc1cn(-c2cccc(NC(=O)N3c4nc(-c5cccc(C(F)(F)F)c5)ccc4N4CC[C@H]3C4)c2)nn1 [Example 606] | A (EC1.5<1 μM) | ≥ 150% |
| O=C(CCCC[C@@H]1SC[C@@H]2NC(=O)N[C@@H]21)NCCCCCC(=O)NCc1cn(-c2cccc(NC(=O)N3c4nc(-c5cccc(C(F)(F)F)c5)ccc4N4CC[C@H]3C4)c2)nn1 [Example 607] | A (EC1.5<1 μM) |  |
| O=C1OC2(c3ccc(O)cc3Oc3cc(O)ccc32)c2ccc(NC(=S)NCc3cn(-c4cccc(NC(=O)N5c6nc(-c7cccc(C(F)(F)F)c7)ccc6N6CC[C@H]5C6)c4)nn3)cc21 [Example 608] | C (EC1.5>25 μM) | < 150% |
| CC(C)(C)OC(=O)N1CCc2ccc(NC(=O)N3c4nc(-c5cccc(C(F)(F)F)c5)ccc4N4CC[C@H]3C4)cc2C1 [Example 609] | B (EC1.5 1-25 μM) | ≥ 150% |
| CC(C)(C)OC(=O)N1CCCc2ccc(NC(=O)N3c4nc(-c5cccc(C(F)(F)F)c5)ccc4N4CC[C@H]3C4)cc21 [Example 610] | B (EC1.5 1-25 μM) | ≥ 150% |
| CC(C)(C)OC(=O)N1CCc2cc(NC(=O)N3c4nc(-c5cccc(C(F)(F)F)c5)ccc4N4CC[C@H]3C4)ccc2C1 [Example 611] | A (EC1.5<1 μM) | ≥ 150% |
| O=C(NCCCN1CCOCC1)N1c2nc(-c3cccc(C(F)(F)F)c3)ccc2N2CC[C@H]1C2 [Example 612] | B (EC1.5 1-25 μM) | ≥ 150% |
| O=C(NCCc1ccncc1)N1c2nc(-c3cccc(C(F)(F)F)c3)ccc2N2CC[C@H]1C2 [Example 613] | B (EC1.5 1-25 μM) | ≥ 150% |
| O=C(NCCc1ccccn1)N1c2nc(-c3cccc(C(F)(F)F)c3)ccc2N2CC[C@H]1C2 [Example 614] | B (EC1.5 1-25 μM) | ≥ 150% |
| O=C(NCCc1cccnc1)N1c2nc(-c3cccc(C(F)(F)F)c3)ccc2N2CC[C@H]1C2 [Example 615] | B (EC1.5 1-25 μM) | ≥ 150% |

Second part, the molecule after the results:

| Tryp AVG EC1.5 (μM) | Emax | Compound |
| --- | --- | --- |
| B (EC1.5 1-25 μM) | ≥ 150% | Cc1nc(NC(=O)N2c3nc(-c4cccc(Cl)c4)ccc3N3CCC2CC3)sc1C [Example 569] |
| B (EC1.5 1-25 μM) | ≥ 150% | O=C(Nc1ccccn1)N1c2nc(-c3cncc(F)c3)ccc2N2CCC1CC2 [Example 570] |
| B (EC1.5 1-25 μM) | ≥ 150% | O=C(Nc1cncc(F)c1)N1c2nc(-c3cncc(F)c3)ccc2N2CCC1CC2 [Example 571] |
| B (EC1.5 1-25 μM) | ≥ 150% | O=C(Nc1cccnc1)N1c2nc(-c3cncc(F)c3)ccc2N2CCC1CC2 [Example 572] |
| C (EC1.5>25 μM) | < 150% | O=C(Nc1ccncn1)N1c2nc(-c3cncc(F)c3)ccc2N2CCC1CC2 [Example 573] |
| A (EC1.5<1 μM) | ≥ 150% | O=C(Nc1cccc(-c2cnco2)c1)N1c2nc(-c3cncc(F)c3)ccc2N2CCC1CC2 [Example 574] |
| A (EC1.5<1 μM) | ≥ 150% | O=C(Nc1cccc(-c2cnco2)c1)N1c2nc(-c3cncc(Cl)c3)ccc2N2CCC1CC2 [Example 575] |
| B (EC1.5 1-25 μM) | ≥ 150% | O=C(Nc1ccncn1)N1c2nc(-c3cncc(Cl)c3)ccc2N2CCC1CC2 [Example 576] |
| B (EC1.5 1-25 μM) | ≥ 150% | Cc1nc(NC(=O)N2c3nc(-c4cncc(F)c4)ccc3N3CCC2CC3)sc1C [Example 577] |
| B (EC1.5 1-25 μM) | ≥ 150% | COc1cc(NC(=O)N2c3nc(-c4cncc(F)c4)ccc3N3CCC2CC3)nc(OC)n1 [Example 578] |
| B (EC1.5 1-25 μM) | ≥ 150% | COc1cc(NC(=O)N2c3nc(-c4cncc(F)c4)ccc3N3CCC2CC3)ncn1 [Example 579] |
| A (EC1.5<1 μM) | ≥ 150% | O=C(Nc1cccc(-n2cncn2)c1)N1c2nc(-c3cccc(C(F)(F)F)c3)ccc2N2CC[C@H]1C2 [Example 581] |
| B (EC1.5 1-25 μM) | ≥ 150% | O=C(Nc1cccnc1)N1c2nc(-c3cnn(C4CCCC4)c3)ccc2N2CC[C@H]1C2 [Example 587] |
| A (EC1.5<1 μM) | ≥ 150% | O=C(Nc1cccc(-c2cnco2)n1)N1c2nc(-c3cccc(C(F)(F)F)c3)ccc2N2CC[C@H]1C2 [Example 588] |
| A (EC1.5<1 μM) | ≥ 150% | O=C(Nc1cc(-c2cnco2)ccn1)N1c2nc(-c3cccc(C(F)(F)F)c3)ccc2N2CC[C@H]1C2 [Example 589] |
| A (EC1.5<1 μM) | ≥ 150% | O=C(Nc1cc(-c2cnco2)ccn1)N1c2nc(-c3cccc(C(F)(F)F)c3)ccc2N2CCC[C@H]1C2 [Example 591] |
| A (EC1.5<1 μM) | ≥ 150% | O=C(Nc1cccc(C2CCNC2)c1)N1c2nc(-c3cccc(C(F)(F)F)c3)ccc2N2CC[C@H]1C2 (stereo partly shown) [Example 593] |
| A (EC1.5<1 μM) | ≥ 150% | O=C(Nc1cc(-c2cnco2)ccn1)N1c2nc(-c3cccc(C(F)(F)F)c3)ccc2N2CCC1CC2 [Example 595] |
| A (EC1.5<1 μM) | ≥ 150% | O=C(Nc1cccc(-c2cnco2)n1)N1c2nc(-c3cccc(C(F)(F)F)c3)ccc2N2CCC1CC2 [Example 596] |
